Test results as given in a melting point compilation (Tetko et al.; mined from patent text by program, amines drawn as free bases though some values may be those of a salt).

SMILES	melting point [°C]
O=C(NCCCOc1ccncc1)c1cccs1	123 to 125
CCCCCNC(=O)[C@H](Cc1ccc(N(CC(=O)O)CC(=O)O)cc1)NC(=O)[C@H](Cc1ccccc1)NC(=O)OC(C)(C)C	151 to 152
Cc1cccc(CNC(=O)c2ccc3n2Cc2ccccc2N(C(=O)c2ccc(-c4ccccc4C)c(C)c2)C3)c1	130 to 132
CC(=O)N1CCC(c2ccc(S(N)(=O)=O)cc2)CC1	196 to 197
N#Cc1ccccc1OC(=O)CCC1CCN(C(=N)N)CC1	160 to 162
Cc1cccc(NC(=O)NC2N=C(c3ccccc3F)c3ccccc3N(Cc3ccccn3)C2=O)c1 (racemic)	215 to 216
O=c1oc(-c2ccccc2)cc(O)c1C(CC1CC1)SCc1ccccc1 (configuration not stated)	59 to 61
CN1CCN2C(=O)c3ccccc3C12c1ccccc1 (configuration not stated)	120 to 122
CN1C(=O)CC[C@]2(C)c3ccc(C#Cc4ccccc4)cc3CC[C@@H]12	205 to 208
N#CCOS(=O)(=O)c1cccc([N+](=O)[O-])c1	66 to 69
CC12CCC3c4ccc(C(=O)O)cc4CCC3C1CCC2C(=O)CCc1ccc(O)cc1 (configuration not stated)	197
O=C(O)CC[C@@H](CSc1ccc(Cc2ccccc2)cc1)NC(=O)CCCCCCc1ccccc1	89 to 91.5
CC(C)(C)c1cc(Cn2nc(CCCCCCCCc3nn(Cc4cc(C(C)(C)C)c(O)c(C(C)(C)C)c4)c(=O)o3)oc2=O)cc(C(C)(C)C)c1O	142
Cc1cccc(NC(=O)NC2N=C(c3ccccc3F)c3ccccc3N(CC(=O)NC3C4CC5CC(C4)CC3C5)C2=O)c1 (configuration not stated)	245 to 246
Cc1ccc2c(c1)c(=O)oc(=O)n2C	153
COC(=O)[C@H](Cc1ccc(OCCCN(C)Cc2ccccc2)cc1)NC(=O)[C@@H]1CCCN1S(=O)(=O)c1ccc(C)cc1	60 to 70
COc1cc2c(cc1O)CCC(=O)N2Cc1cc(OC)c(OC)c(OC)c1	157 to 158
O=C(NCc1ccc2c(c1)OCO2)c1ccc2[nH]c(=O)n(Cc3ccc(Cl)cc3)c(=O)c2c1	290
CC(c1cc(F)ccc1Oc1nc2ccc(-n3cc(-c4ccccc4)nn3)cc2cc1Cc1ccccc1)n1ccnc1 (configuration not stated)	118 to 120
N#Cc1ccc(-c2ccc(C#N)cc2-c2nc3ccccc3[nH]2)c(-c2nc3ccccc3[nH]2)c1	347 to 349

SMILES	melting point [°C]
CC(C)(C)N[C@H](Cc1ccccc1)C(=O)O	79 to 80
COP(=S)(OC)Oc1nsc(C)c1C#N	52
CCc1nc(OC)c(NC(=O)N2CCN(c3cc(C)cc(C)c3)CC2)cc1C(=O)NC(C)C(=O)Nc1cc(CO)cc(Nc2c3ccccc3nc3ccc(C)cc23)c1 (configuration not stated)	164 to 166
O=C(O)CCc1cn(Cc2ccc(OCc3ccncc3)cc2)cc1-c1ccccc1	124 to 125
COc1cc(OC)nc(SC)n1	50 to 52
CC(C)CN(Cc1nnc(-c2ncn3c2CN(C)C(=O)c2c(Cl)cccc2-3)o1)CC(C)C	161 to 163
CN(C)C(=NC(=O)C(O)(C(N)=O)c1ccc(Cl)c(Cl)c1)N(C)C (configuration not stated)	98 to 100
O=c1ccn(-c2ccc(Cl)cc2)nc1-c1ccnn1-c1ccccc1	219 to 220
CC(C)NC(=O)C(=O)c1ccc(Cl)cc1	79
N#Cc1nn(-c2c(Cl)cc(C(F)(F)F)cc2Cl)c(-n2cccn2)c1S(=O)(=O)C(F)(F)F	191 to 193
CC(C)c1cc(C(=O)O)cs1	64 to 67
CCOP(=O)(OCC)C(Nc1nocc1C)P(=O)(OCC)OCC	68 to 69
CN1CCN(c2cccc(Nc3nc4c(-c5ccc(S(C)(=O)=O)cc5)cccn4n3)c2)C(=O)C1	234 to 236
Cc1nnc(-c2ccc3occ(-c4ccc(S(=O)C(C)C)cc4)c3c2)o1 (configuration not stated)	157 to 158
CCCCC1(C2CCCC2)Cc2cc(OCCCC(=O)O)c(Cl)c(Cl)c2C1=O (configuration not stated)	139 to 140
N#CCCCSc1nccc(NC(=S)NCC(F)(F)F)n1	125 to 126
O=C(OC1CCCCC1C(C[N+](=O)[O-])c1ccc(Cl)cc1)c1ccc([N+](=O)[O-])cc1 (mixture of isomers)	146 to 148
CSc1ccc(N2CCN(CCCOc3ccc(C4=NCCO4)cc3)CC2)nn1	163
COC(=O)C(C)c1noc2cc(F)c(N3C(=O)C(C)=C(C)C3=O)cc12 (configuration not stated)	106 to 107
c1ccc2c(OCCCCCCCCOc3cccc4ccccc34)cccc2c1	60

SMILES	melting point [°C]
Cc1cc(=O)c(OCC(=O)O)cn1C	240 to 242
CN1CCN(c2ccc(Nc3ncc4c(n3)S/C(=C/c3ccc(O)cc3)C(=O)N4)cc2)CC1	312 to 314
Nc1ncnc2c1ncn2COCCO	200
O=C1c2cc(O)cc(O)c2C(=O)C1c1ccc(O)cc1 (configuration not stated)	180
COc1cc(N)c(Cl)cc1C(=O)NC1C2CCN(CC2)C1CN1CCCCC1 (configuration not stated)	185 to 187
COc1ccc(OC)c(N2Cc3[nH]c(=O)[nH]c(=O)c3C2)c1	308 to 310
CCCCC(CC)CNCCCCOc1ccc2ccccc2c1 (configuration not stated)	94
CCCCCCC(=O)CC(=O)c1ccccc1	14
CC(C)CNC(=O)/C=C/c1cccc(Cl)c1	112
CCN(CC)C(=O)/C=C/C(C)Sc1nc(N)cc(Cl)n1 (configuration not stated)	152 to 153
CCN(CC)C(=S)SCC(c1cccc2ccccc12)[N+](=O)[O-] (configuration not stated)	136 to 138
NNc1ccc(Cl)c(Cl)c1Cl	138 to 140
CON(C)S(=O)(=O)c1ccccc1N	50
CC(c1ccccc1)(c1ccc(OC(=O)CCl)cc1)c1ccc(OC(=O)CCl)cc1	97 to 98
Cc1cc(C)c2cccc(OCc3c(Cl)ccc(S(=O)(=O)N4CCC[C@H]4C(=O)N4CCN(C(=O)c5cccc(C(N)=NO)c5)CC4)c3Cl)c2n1	160
COc1cc(OC)c(-c2nc(NC(=O)c3cc4cc(C)cc(C)c4n3CC(=O)O)sc2CCC2CCCCC2)cc1Br	221 to 222
N#Cc1cc2c(cc1F)OCC21C(=O)Nc2ccccc21 (configuration not stated)	222 to 224
O=C(c1ccccc1Nc1ccc(O)cc1)N1CCCCC1	199 to 201

Results, then the molecule that gave them:

melting point [°C]	SMILES
80 to 81	CCOC(=O)CCCCOc1ccc(OCC)cc1C=O
280	CS(=O)(=O)CCc1nc2nc[nH]c2c2nc(-c3ccc(-c4ccccc4)cc3)nn12
93 to 96	CCc1nc(N)nc(N)c1CCC(C)c1cccc(C(F)(F)F)c1 (configuration not stated)
97 to 98	Cc1ccnc2c1C(=O)CC(c1ccccc1Cl)C2 (configuration not stated)
226 to 228	NS(=O)(=O)c1cc2[nH]c(CCc3ccccc3)nc2cc1Cl
197 to 198	CCOC(=O)C1=C(C(F)(F)F)NC2=C(C(=O)CCC2)C1c1nccn1C (configuration not stated)
60	COc1cccc2c1SCC(=O)C2
192 to 194	COc1cc(-c2ccccc2F)c(Cl)cc1C(=O)N1Cc2ccc(C(=O)O)n2Cc2ccccc21
> 260	O=C1CC(c2ccc([N+](=O)[O-])cc2)=Nc2cccc(C(F)(F)F)c21
118 to 119	Cc1ccc(-c2nc(CCC(=O)c3ccc(Br)s3)c(C)o2)cc1
72.7	Cc1ccc(-c2ccccc2)cc1Cn1c(C(F)F)nn(C)c1=O
256 to 257	Cc1nc2c3ccccc3ccn2c1Cc1nnn[nH]1
73 to 75	O=C1C(=Cc2cccc(OCCCCl)c2)Cc2ccccc21
135 to 138	COC(=O)c1cc(CSc2ccccc2)cnc1C1=NC(C)(C(C)C)C(=O)N1 (configuration not stated)
174 to 175	Cc1ccnc(Sc2nc(-c3ccc(Cl)cc3)c(CCC(=O)O)o2)n1
183	CC(=NNC(=O)c1cccc(C(F)(F)F)c1)c1cccnc1
143 to 144	CCOC(=O)C1=C(C)NC(c2csc(C)n2)=NC1c1cccc(Cl)c1 (configuration not stated)
213 to 214	CC(CO)CCn1c(C(=O)NCc2cc(C(F)(F)F)cc(C(F)(F)F)c2)c(-c2ccccc2)c2cccnc2c1=O (racemic)
149 to 150	CCN(c1cc(C(=O)OC)c(O)c2ncc(Cc3ccc(F)cc3)cc12)S(C)(=O)=O
199 to 201	CCCNC(=O)Nc1ccc2oc([N+](=O)[O-])c(-c3ccccc3)c2c1

melting point [°C]	SMILES
136 to 137	Cc1ccc(CC(N)=O)c(C)c1OC(F)F
98 to 100	COc1ccccc1C(=O)c1ncccc1C
120 to 122	COC(=O)c1nc2c(c(SC)nn2-c2ccccc2)c(N)c1C(=O)OC
203 to 207	CC(C)(C)OC(=O)N1CCC(c2nc3cc(-c4ccc(-n5cnnn5)cc4F)ccc3o2)CC1
222 to 223	NC(=O)c1ccc(-c2cccc3cc(Cc4cccc(C(F)(F)F)c4)sc23)nc1
169	CCC(=NNC(=O)c1ccccc1)c1cccnc1
205 to 207	Cc1sc2c(Br)c3ccccc3c(-c3cc(Br)c(O)c(NC(=O)OC(C)(C)C)c3)c2c1C
108 to 110	CCOC(=O)c1cnn2c1NCC=C2c1cccc(C(F)(F)F)c1
70	CCOC(=O)C(C)OCC#Cc1nc(Cl)ccc1N (configuration not stated)
130 to 132	CC(=O)c1noc2cc(OCc3cccc(C(F)(F)F)c3)ccc12
178	COc1ccc2cccnc2c1[N+](=O)[O-]
185 to 186	COC(C(=O)O)c1nn(-c2ccc(Cl)cc2)c2c1CCCC2 (configuration not stated)
118 to 120	CSc1ccc(C(=O)CC(F)(F)F)cc1
161 to 164	CC(C)Oc1c(-c2ccc(S(C)(=O)=O)cc2)cnn(-c2cc(F)ccc2F)c1=O
253 to 256	Cc1c(Cl)cc(C2=NNC(=O)CC2O)cc1Cl (configuration not stated)
176 to 177	CC(C)Cn1c(CO)c(-c2ccccc2)c2cc(Br)ccc2c1=O
148	CCC(c1ccc(C(O)(C(F)(F)F)C(F)(F)F)cc1)S(=O)(=O)c1ccccc1 (configuration not stated)
246 to 248	COCC(=O)Nc1cccc2c1C(=O)N(C1CCC(=O)NC1=O)C2=O (configuration not stated)
142	CCOc1nc(N)nc2sc(-c3ccc(F)cc3)cc12
